Measured values published in patent US4731370A, “Pyridyl ester containing 1,4-dihydropyridine derivatives and salts thereof and pharmaceutical composition containing the same” (Toyama Chemical Co., Ltd., priority 1984, dated 1988).

Columns and labels:
[1] = system: Thromboxane-Synthesizing Enzyme; test: Thromboxane-synthesizing enzyme-inhibitory activity (MDA production in platelet-rich plasma after oral dosing); assay type: in vivo, rat (Wistar strain); settings: rat, 3 mg/kg, blood after one hour
Protocol: (§1) The compounds of this invention to be tested were used in the form of a hydrochloride.
To a rat (Wistar strain, male, 300-350 g, 4 heads per group) which had been starved overnight was orally administered a test compound solution, and blood was collected from the abdominal aorta using citric acid after one hour. Two milliliters of a 1×10^9 /ml platelet-rich plasma (PRP) was preincubated at 37° C. for 2 minutes. Subsequently, 0.1 ml of 10 mM sodium archidonate was added, and the resulting mixture was subjected to reaction for 6 minutes, after which indomethacin was added thereto to terminate the reaction. The reaction mixture was subjected to deproteinization treatment and reacted with thiobarbituric acid (TBA) reagent, after which the reaction mixture was subjected to extraction with 3 ml of n-butanol. The resulting extract was subjected to colorimetry (λ=532 nm) to determine the amount of malondialdehyde (MDA) produced. As to the platelet-poor plasma (PPP) obtained from the same rat as above, the same procedure as above was repeated to determine the amount of MDA produced, and the difference between the two is indicated as MDA value. Comparing with the MDA values of the control group, the MDA production-inhibition (%) was determined.
The test compounds 1-9 were adjusted to the desired concentrations with water and the test compounds 11-33 and nicardipine were adjusted to a concentration of 5 mg/ml with an aqueous solution containing 10% of each of dimethyl sulfoxide and Cremophor and then diluted with water to the desired concentrations.

[2] = system: vertebral artery blood flow of a dog; test: Vertebral artery blood flow increasing activity; assay type: in vivo, dog (mongrel); settings: i.v., amount with same activity as 1 mg/kg (i.v.) papaverine hydrochloride, ratio to papaverine hydrochloride
Protocol: as §1
The vertebral artery blood flow of a dog (mongrel, 12-22 kg, 2-3 heads per group) anesthetized with pentobarbital sodium (30 mg/kg, i.v.) was measured by means of an electromagnetic flow meter (MFV-2100 manufactured by Nihon Kohden Kogyo).
The test compounds 1, 3 and 10 were adjusted to a concentration of 1 mg/ml with distilled water, and then diluted with a saline solution to the desired concentrations, after which the thus diluted solutions were intravenously administered, and the test compounds 12, 15, 18, 19, 20, 24, 29, 30, 32 and 33 were formed into solutions in the same manner as in Item 1 above and then intravenously administered.

[3] = system: mouse pulmonary infraction model; test: Antithrombosis activity, mouse pulmonary infraction model, paralytic time-shortening (0.15 ml epinephrine/collagen); assay type: in vivo, mouse (ICR strain); settings: 1 h, oral, 10 mg/kg, challenge after one hour, 10 mice, read-out: Paralytic time-shortening percentage
Protocol: as §1
Comparing the paralytic time of the control group, the paralytic time-shortening percentage due to the compound to be tested was determined.
(§2) The test compounds shown in Table 4 were adjusted to the desired concentrations with water, and the test compounds shown in Table 5 were adjusted to a concentration of 5 mg/ml with an aqueous solution containing 10% by volume of each of dimethyl sulfoxide and Cremophor, and then diluted with water to the desired concentrations.

[4] = Acute toxicity, intravenous, mice; settings: mouse, in vivo, mice (ICR, male, 4 weeks old, 5 per group)
[5] = system: mouse pulmonary infraction model; test: Antithrombosis activity, mouse pulmonary infraction model, prevention of death and paralysis (0.10 ml epinephrine/collagen); assay type: in vivo, mouse (ICR strain); settings: 1 h; mouse, oral, 10 mg/kg, challenge after one hour; control 25.7%; read-out: Preventive percentage of death + paralysis for 10 minutes or more
Protocol: as §1
According to the G. DiMinno and M. J. Silver method [J. Pharmacol. Exp. Therap., 225 (1) 57-60 (1983)], a solution of the compound to be tested was orally administered to a mouse (ICR strain, male, 4 weeks old), and 0.15 ml of a mixed solution of epinephrine (100 μM) and collagen (150 μg/ml) was intravenously administered to the mouse after one hour, after which the paralytic time was measured. Comparing the paralytic time of the control group, the paralytic time-shortening percentage due to the compound to be tested was determined. The results obtained are shown in Table 4, in which the case where the paralytic time was 15 minutes was calculated as death.
Moreover, the same experiment was repeated, except that 0.10 ml of a mixed solution of epinephrine (100 μM) and collagen (150 μg/ml) was intravenously administered to the mouse and the effect of preventing the appearance of death and a case where the paralytic time was 10 minutes or more was checked and the results thereof are shown in Table 5.
as §2

[6] = system: coronary vessel (isolated guinea pig heart); test: Coronary vasodilating activity (isolated perfused guinea pig heart, coronary effluent); set-up: species or system guinea pig (Hartley strain); settings: Langendorff perfusion, 0.1 ml into aorta, hydrochloride
Protocol: as §1
The heart of a guinea pig (Hartley strain, male, 500-700 g, 3 heads per group) was isolated and set in the Landendorff perfusing apparatus. About 0.5% defibrinated blood was fed to the apparatus, and the Krebs bicarbonate solution, into which a mixed gas consisting of 95% of O2 and 5% of CO2 had been bubbled was perfused over the heart, after which a 1 mg/ml solution of the test compound in an aqueous solution containing 10% by volume of dimethylsulfoxide and 10% of polyoxyethylfatty acid glyceride [Cremophor EL manufactured by Sigma] was prepared, diluted with a saline solution to the desired concentration, and then administered into the heart in an amount of 0.1 ml through the rubber tube attached to the cannula inserted retrogressively into the aorta. The vasodilating activity was determined by measuring the amount of the solution effluent from the coronary vessel after passing through the aorta by means of an electric drop counter (universal drop counter manufactured by Natsume Seisakusho) and indicated as ED50 value which is the amount necessary for the amount of the effluent solution to increase 50% as compared with those before addition of the test compound.

Structure (SMILES) | MDA production-inhibition [1] [%] | Effect ratio [2] | inhibition in vivo at 10 mg/kg [3] [%] | LD50 [4] [mg/kg] | responders at 10 mg/kg [5] [%] | ED50 (amount necessary for the amount of the effluent solution to increase 50%) [6] [μg/i.c.]
COCCOC(=O)C1=C(C)NC(C)=C(C(=O)OCCN(C)C/C(C)=C/c2ccc(Cc3cccnc3)cc2)C1c1cccc([N+](=O)[O-])c1 (stereo not drawn) [compound 3] | 65.8 | 385 | – | – | – | –
CCOC(=O)C1=C(C)NC(C)=C(C(=O)OCCN(C)C/C(C)=C/c2ccc(Cc3cccnc3)cc2)C1c1cccc([N+](=O)[O-])c1 (stereo not drawn) [compound 4] | 53.6 | – | 38.6 | – | – | –
CC1=C(C(=O)OCCN(C)C/C=C/c2ccc(Cn3ccnc3)cc2)C(c2cccc([N+](=O)[O-])c2)C(C(=O)OC(C)C)=C(C)N1 (stereo not drawn) [compound 9] | 47.2 | – | – | ≥ 30 | – | –
CCOC(=O)C1=C(C)NC(C)=C(C(=O)OCCOCCCc2ccc(Cn3ccnc3)cc2)C1c1cccc([N+](=O)[O-])c1 (stereo not drawn) [compound 11] | 37.8 | – | – | – | – | –
CCOC(=O)C1=C(C)NC(C)=C(C(=O)OCCOC/C(C)=C/c2ccc(Cc3cccnc3)cc2)C1c1cccc([N+](=O)[O-])c1 (stereo not drawn) [compound 12] | 48.1 | 345 | – | ≥ 75 | 77.8 | 0.026
CCOC(=O)C1=C(C)NC(C)=C(C(=O)OCCOC/C=C/c2ccc(Cn3ccnc3)cc2)C1c1cccc([N+](=O)[O-])c1 (stereo not drawn) [compound 13] | 47.2 | – | – | – | – | 0.036
CCOC(=O)C1=C(C)NC(C)=C(C(=O)OCCOCc2ccc(Cn3ccnc3)cc2)C1c1cccc([N+](=O)[O-])c1 (stereo not drawn) [compound 14] | – | – | – | – | – | 0.023
CCOC(=O)C1=C(C)NC(C)=C(C(=O)OCCOCc2ccc(Cc3cccnc3)cc2)C1c1cccc([N+](=O)[O-])c1 (stereo not drawn) [compound 15] | – | 238 | – | – | – | 0.0092
CCOC(=O)C1=C(C)NC(C)=C(C(=O)OCCOC/C=C/c2ccc(Cc3cccnc3)cc2)C1c1cccc([N+](=O)[O-])c1 (stereo not drawn) [compound 16] | 31.6 | – | – | ≥ 75 | – | 0.0105
COC(=O)C1=C(C)NC(C)=C(C(=O)OCCOC/C(C)=C/c2ccc(Cc3cccnc3)cc2)C1c1cccc([N+](=O)[O-])c1 (stereo not drawn) [compound 17] | 58.6 | – | – | ≥ 75 | 100 | 0.012
CCOC(=O)C1=C(C)NC(C)=C(C(=O)OCCOCCCc2ccc(Cc3cccnc3)cc2)C1c1cccc([N+](=O)[O-])c1 (stereo not drawn) [compound 18] | 40.9 | 233 | – | – | – | 0.026
CCOC(=O)C1=C(C)NC(C)=C(C(=O)OCCOC/C(C)=C/c2ccc(Oc3cccnc3)cc2)C1c1cccc([N+](=O)[O-])c1 (stereo not drawn) [compound 19] | – | 550 | – | ≥ 75 | 77.8 | 0.017
CCOC(=O)C1=C(C)NC(C)=C(C(=O)OCCOCCCc2ccc(Oc3cccnc3)cc2)C1c1cccc([N+](=O)[O-])c1 (stereo not drawn) [compound 20] | – | 535 | – | – | 70 | 0.024
CCOC(=O)C1=C(C)NC(C)=C(C(=O)OCCOC/C(C)=C/c2ccc(Cc3cccnc3)s2)C1c1cccc([N+](=O)[O-])c1 (stereo not drawn) [compound 21] | – | – | – | ≥ 75 | 80 | –
COC(=O)C1=C(C)NC(C)=C(C(=O)OCCOC/C=C/c2ccc(Cc3cccnc3)cc2)C1c1cccc([N+](=O)[O-])c1 (stereo not drawn) [compound 22] | – | – | – | – | – | 0.016
CC1=C(C(=O)OCCOC/C=C/c2ccc(Cc3cccnc3)cc2)C(c2cccc([N+](=O)[O-])c2)C(C(=O)OCCN(C)Cc2ccccc2)=C(C)N1 (stereo not drawn) [compound 23] | – | – | – | – | – | 0.019
CC1=C(C(=O)OCCOC/C=C/c2ccc(Cc3cccnc3)cc2)C(c2cccc([N+](=O)[O-])c2)C(C(=O)OC(C)C)=C(C)N1 (stereo not drawn) [compound 24] | – | 286 | – | – | 90 | –
COC(=O)C1=C(C)NC(C)=C(C(=O)OCCOC/C=C/c2ccc(Cc3cccnc3)cc2)C1c1ccccc1C(F)(F)F (stereo not drawn) [compound 26] | – | – | – | – | 90 | –
CCOC(=O)C1=C(C)NC(C)=C(C(=O)OCCOCCc2ccc(Cc3cccnc3)cc2)C1c1cccc([N+](=O)[O-])c1 (stereo not drawn) [compound 27] | 35.7 | – | – | – | 77.8 | –
CCOC(=O)C1=C(C)NC(C)=C(C(=O)OCCSC/C=C/c2ccc(Cc3cccnc3)cc2)C1c1cccc([N+](=O)[O-])c1 (stereo not drawn) [compound 28] | 31.2 | – | – | – | – | –
CC1=C(C(=O)OCCOC/C(C)=C/c2ccc(Cc3cccnc3)cc2)C(c2cccc([N+](=O)[O-])c2)C(C(=O)OC(C)C)=C(C)N1 (stereo not drawn) [compound 29] | 56.8 | 426 | – | – | 90 | 0.019
CCOC(=O)C1=C(C)NC(C)=C(C(=O)OCCCCOC/C(C)=C/c2ccc(Cc3cccnc3)cc2)C1c1cccc([N+](=O)[O-])c1 (stereo not drawn) [compound 30] | – | 397 | – | ≥ 50 | – | –
CCOC(=O)C1=C(C)NC(C)=C(C(=O)OCC(C)COC/C(C)=C/c2ccc(Cc3cccnc3)cc2)C1c1cccc([N+](=O)[O-])c1 (stereo not drawn) [compound 31] | 50.5 | – | – | – | – | –
COC(=O)C1=C(C)NC(C)=C(C(=O)OCC(C)(C)COC/C(C)=C/c2ccc(Cc3cccnc3)cc2)C1c1cccc([N+](=O)[O-])c1 (stereo not drawn) [compound 32] | – | 417 | – | – | – | –
CCOC(=O)C1=C(C)NC(C)=C(C(=O)OCC(C)(C)COC/C(C)=C/c2ccc(Cc3cccnc3)cc2)C1c1cccc([N+](=O)[O-])c1 (stereo not drawn) [compound 33] | 41.5 | 333 | – | – | – | –
